Key:
persian speedwell = test: Test Example 4: herbicidal effect by soil treatment (Table 19, symbol R); format: in vivo, Persian speedwell (Veronica persica)
Method in brief: (§1)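 Soil-surface application: an emulsion agent diluted with water to the predetermined dose is sprayed uniformly over seeds lying under roughly 1.5 cm of sterilized diluvial soil. Boxes stay in a greenhouse at 25° C. to 30° C. Three weeks later, each species is graded on previously defined criteria.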

chickweed = test: Test Example 5: herbicidal effect by foliage application, plastic box (Table 20, symbol P); format: in vivo, common chickweed (Stellaria media); settings: foliage application, evaluated three weeks after application
Method in brief: (§2)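 Sow seeds spot-wise in sterilized diluvial soil; cover with ~1.5 cm soil. Grow 14 days in greenhouse, 25° C. to 30° C. Spray foliage with emulsion diluted to predetermined amount. Rate effect after 3 weeks.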

late watergrass = test: Test Example 1: herbicidal activity, application before weed generation under submerged conditions (Table 16, symbol A); format: in vivo, late watergrass (Echinochloa oryzicola); settings: 320 g/ha applied herbicide
Method in brief: (§3)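 Alluvial soil was flooded to 4 cm depth, weed seeds were sown mixed and 2.5-leaf rice seedlings were transplanted. On sowing day, the compound's emulsion, diluted in water to a set dose, was applied to the water surface. Plants grew at 25–30 °C and were scored 0–5 after three weeks.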

false cleavers [1] = test: Test Example 5: herbicidal effect by foliage application, plastic box (Table 20, symbol Q); format: in vivo, false cleavers (Galium spurium); settings: foliage application, evaluated three weeks after application
Method in brief: as §2

velvetleaf = test: Test Example 5: herbicidal effect by foliage application, plastic box (Table 20, symbol M); format: in vivo, velvetleaf (Abutilon theophrasti); settings: foliage application, evaluated three weeks after application
Method in brief: as §2

false cleavers [2] = test: Test Example 4: herbicidal effect by soil treatment (Table 19, symbol Q); format: in vivo, false cleavers (Galium spurium)
Method in brief: as §1

Chinese sprangletop = test: Test Example 3: herbicidal effect by foliage application, Wagner pot (Table 18, symbol D); format: in vivo, chinese sprangletop (Leptochloa chinensis)
Method in brief: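 Plants were sown in alluvial soil held under 0.1–0.5 cm standing water and grown 14 days in a greenhouse at 25–30 °C. An emulsifiable formulation, water-diluted to the set dose, was then sprayed onto the foliage, and effects were scored three weeks later using previously defined criteria.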

Japanese bulrush = test: Test Example 1: herbicidal activity, application before weed generation under submerged conditions (Table 16, symbol B); format: in vivo, Japanese bulrush (Schoenoplectus juncoides); settings: 320 g/ha applied herbicide
Method in brief: as §3

green foxtail = test: Test Example 5: herbicidal effect by foliage application, plastic box (Table 20, symbol G); format: in vivo, green foxtail (Setaria viridis); settings: foliage application, evaluated three weeks after application
Method in brief: as §2

oval-leafed pondweed [3] = test: Test Example 2: herbicidal activity, application during weed generation under submerged conditions (Table 17, symbol C); format: in vivo, oval-leafed pondweed (Monochoria vaginalis); settings: AAH 320 g/ha; application during weed generation, submerged conditions
Method in brief: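 Effect on each weed is rated three weeks post-treatment, using the same scoring criteria as the preceding test. Plants grow from mixed-sown seed in flooded alluvial soil (4 cm water) at 25° C. to 30° C., and are treated at one to two leaves with diluted emulsion dropped onto the water.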

blackgrass = test: Test Example 4: herbicidal effect by soil treatment (Table 19, symbol J); format: in vivo, blackgrass (Alopecurus myosuroides)
Method in brief: as §1

windgrass = test: Test Example 4: herbicidal effect by soil treatment (Table 19, symbol L); format: in vivo, windgrass (Apera spica-venti)
Method in brief: as §1

oval-leafed pondweed [4] = test: Test Example 1: herbicidal activity, application before weed generation under submerged conditions (Table 16, symbol C); format: in vivo, oval-leafed pondweed (Monochoria vaginalis); settings: 320 g/ha applied herbicide
Method in brief: as §3

[5] = amount of applied herbicide 320 g/ha

CCCC(=O)Oc1c(C)nn(C)c(=O)c1-c1c(-c2ccc(F)cc2OCC)sc2ccc(F)cc12 [2-085]
herbicidal effect rating, R: persian speedwell (persian speedwell; 320 g/ha): 3 (Herbicidal rate of 40% or more and less than 70%) | herbicidal effect on P: chickweed (chickweed; 320 g/ha): 5 (Herbicidal rate of 90% or more (almost completely withered)) | Herbicidal effect on A: late watergrass (grade 0-5) (late watergrass): 4 (Herbicidal rate of 70% or more and less than 90%) | herbicidal effect on Q: false cleavers (false cleavers [1]; 320 g/ha): 5 (Herbicidal rate of 90% or more (almost completely withered)) | herbicidal effect on M: velvetleaf (velvetleaf; 320 g/ha): 5 (Herbicidal rate of 90% or more (almost completely withered)) | herbicidal effect rating, Q: false cleavers (false cleavers [2]; 320 g/ha): 4 (Herbicidal rate of 70% or more and less than 90%) | herbicidal effect on D (Chinese sprangletop), rating 0-5 (Chinese sprangletop; 320 g/ha): 0 (Herbicidal rate of 5% or less (almost no effect)) | Herbicidal effect on B: Japanese bulrush (grade 0-5) (Japanese bulrush): 3 (Herbicidal rate of 40% or more and less than 70%) | herbicidal effect on G: green foxtail (green foxtail; 320 g/ha): 3 (Herbicidal rate of 40% or more and less than 70%) | herbicidal effect rating, C: oval-leafed pondweed (oval-leafed pondweed [3]): 3 (Herbicidal rate of 40% or more and less than 70%) | herbicidal effect rating, J: blackgrass (blackgrass; 320 g/ha): 0 (Herbicidal rate of 5% or less (almost no effect)) | herbicidal effect rating, L: windgrass (windgrass; 320 g/ha): 0 (Herbicidal rate of 5% or less (almost no effect)) | Herbicidal effect on C: oval-leafed pondweed (grade 0-5) (oval-leafed pondweed [4]): 1 (Herbicidal rate of 5% or more and less than 20%)

COCC(=O)Oc1c(C)nn(C)c(=O)c1-c1c(-c2ccc(OC(F)F)cc2)sc2ccc(F)cc12 [2-283]
herbicidal effect on R: persian speedwell (persian speedwell; [5]): 5 (Herbicidal rate of 90% or more (almost completely withered)) | P: chickweed, herbicidal effect (criteria 0-5) (chickweed; AAH 320 g/ha): 5 (Herbicidal rate of 90% or more (almost completely withered)) | Herbicidal effect on A: late watergrass (grade 0-5) (late watergrass): 3 (Herbicidal rate of 40% or more and less than 70%) | Q: false cleavers, herbicidal effect (criteria 0-5) (false cleavers [1]; AAH 320 g/ha): 5 (Herbicidal rate of 90% or more (almost completely withered)) | M: velvetleaf, herbicidal effect (criteria 0-5) (velvetleaf; AAH 320 g/ha): 5 (Herbicidal rate of 90% or more (almost completely withered)) | herbicidal effect on Q: false cleavers (false cleavers [2]; [5]): 0 (Herbicidal rate of 5% or less (almost no effect)) | herbicidal effect on D: Chinese sprangletop (Chinese sprangletop; [5]): 4 (Herbicidal rate of 70% or more and less than 90%) | Herbicidal effect on B: Japanese bulrush (grade 0-5) (Japanese bulrush): 5 (Herbicidal rate of 90% or more (almost completely withered)) | G: green foxtail, herbicidal effect (criteria 0-5) (green foxtail; AAH 320 g/ha): 5 (Herbicidal rate of 90% or more (almost completely withered)) | herbicidal effect rating, C: oval-leafed pondweed (oval-leafed pondweed [3]): 4 (Herbicidal rate of 70% or more and less than 90%) | herbicidal effect on J: blackgrass (blackgrass; [5]): 3 (Herbicidal rate of 40% or more and less than 70%) | herbicidal effect on L: windgrass (windgrass; [5]): 4 (Herbicidal rate of 70% or more and less than 90%) | Herbicidal effect on C: oval-leafed pondweed (grade 0-5) (oval-leafed pondweed [4]): 3 (Herbicidal rate of 40% or more and less than 70%)
